# Measurements: patent US6136842A, “Sulphur derivatives comprising an amide bond, method for preparing same, use thereof as drugs, and pharmaceutical compositions containing such derivatives” (Hoechst Marion Roussel, priority 1996, dated 2000)
# pIC50: −log10 of the molar value.
# Target: T1, endothelin-converting enzyme (ECE) (Homo sapiens, UniProt P42892)
# T1 sequence (P42892 1-770): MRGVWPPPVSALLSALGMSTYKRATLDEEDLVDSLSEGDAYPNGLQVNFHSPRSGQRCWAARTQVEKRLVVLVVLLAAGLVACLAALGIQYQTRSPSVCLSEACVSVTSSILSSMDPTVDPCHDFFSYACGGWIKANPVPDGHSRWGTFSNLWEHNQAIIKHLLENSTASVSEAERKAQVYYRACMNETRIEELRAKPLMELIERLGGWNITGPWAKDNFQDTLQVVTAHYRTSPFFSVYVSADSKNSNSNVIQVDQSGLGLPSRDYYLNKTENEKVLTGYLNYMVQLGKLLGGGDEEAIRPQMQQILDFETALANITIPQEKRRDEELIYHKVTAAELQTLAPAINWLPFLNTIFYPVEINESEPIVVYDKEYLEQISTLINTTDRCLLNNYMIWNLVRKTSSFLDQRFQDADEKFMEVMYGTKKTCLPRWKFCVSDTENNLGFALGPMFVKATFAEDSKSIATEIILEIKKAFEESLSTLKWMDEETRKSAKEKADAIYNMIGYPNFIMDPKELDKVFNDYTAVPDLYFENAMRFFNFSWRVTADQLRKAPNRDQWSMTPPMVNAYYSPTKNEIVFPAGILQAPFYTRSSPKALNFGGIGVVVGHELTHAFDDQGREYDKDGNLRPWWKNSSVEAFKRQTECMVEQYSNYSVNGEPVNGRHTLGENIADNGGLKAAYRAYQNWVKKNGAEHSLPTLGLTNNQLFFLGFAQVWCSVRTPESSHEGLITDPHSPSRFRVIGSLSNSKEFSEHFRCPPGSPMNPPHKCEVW
# Experiment: Determination of the inhibitory effect of the endothelin-converting enzyme (ECE): cleavage of (2,3-^3 H)propionyl-b-ET-1(19-35)
# Format: biochemical
# Conditions: purified ECE, pre-incubated 30 minutes at 37° C., Tris maleate buffer pH=6.5, incubation one hour at 37° C.
# Description: Determination of the inhibitory effect of the endothelin-converting enzyme (ECE) A test is used, in which the product (2,3-^3 H)propionyl-b-ET-1(19-35) prepared as indicated below in a) is cleaved by ECE into the product (2,3-^3 H)propionyl-b-ET-1(19-21) in the presence of product P of which the inhibitory activity of ECE one wishes to determine as indicated below in b): the inhibitory activity of ECE of the product P will therefore be accordingly as high as the quantity of product of formula (II) formed, determined by counting the radioactivity, will be low. The operation is carried out as follows: b) Determination of the inhibitory activity of the endothelin-converting enzyme (ECE) […] The reaction is initiated by the addition of 10 μl of (2,3-^3 H)propionyl-b-ET-1(-19-35) prepared as indicated above in a), at a final concentration of 1.8.10^-12 M After incubation for one hour at 37° C., the reaction is stopped by the addition of 600 μl of ethyl acetate and the (2,3-^3 H)propionyl-b-ET-1(19-21) is extracted by mechanical agitation for 2 minutes. 300 μl of the organic phase is removed, 5 ml of liquid scintillator is added and the radioactivity is counted for 1 minute with a liquid scintillation counter. Each measurement is carried out in triplicate except for the ECE control (control enzyme, without the product the ECE inhibitory activity of which one wishes to test), for which the measurement is carried out six times. The percentage inhibition is calculated by establishing the relationship: [formula] The blank is carried out starting with the solution obtained without enzyme. The test was validated by its application to known inhibitors i.e. P1 which is phosphoramidon and P2 which is N-(phenylethylphosphonyl)-Leu-Trp (TAKEDA). From the cpm's obtained and by plotting the graph of the percentage of inhibition relative to the concentration of inhibitor (nM), the IC50 is calculated which therefore corresponds to the concentration which causes a 50% inhibition of ECE.
row,Compound,pIC50
1,"O=C(N[C@@H](Cc1ccc(-c2cccs2)cc1)C(=O)O)C(CS)Cc1cccc(Br)c1 (single isomer, unassigned) [Example 7A]",6.92
2,"O=C(N[C@@H](Cc1c[nH]c2c(OCc3ccccc3)cccc12)C(=O)O)C(CS)Cc1cccc(Br)c1 (stereo partly drawn) [Example 8, N-[3-(3-bromophenyl)-2-(mercaptomethyl)-1-oxopropyl]-7-(phenylmethoxy)-Tryptophan]",6.82
3,"O=C(N[C@@H](Cc1ccc(-c2ccccc2)cc1)c1nnn[nH]1)[C@@H](CS)Cc1ccccc1 [Example 9, (S,S)N-(2-((1,1'-biphenyl)-4-yl)-1-(1H-tetrazol-5-yl)ethyl)-alpha-(mercaptomethyl)-benzenepropanamide]",7.15
